Results: paper PMC7923228, “Phosphoinositide 3-Kinase (PI3K) Reactive Oxygen Species (ROS)-Activated Prodrug in Combination with Anthracycline Impairs PI3K Signaling, Increases DNA Damage Response and Reduces Breast Cancer Cell Growth” (International Journal of Molecular Sciences, 2021)
Where “and” joins values, the source holds several entries; their conditions need not be identical. Equal values may be shown once. Read-outs that look alike come from different tables or passages of the source.

Experiments:
MDA-MB-453 cells [1] = assay: MTT cell viability assay, 72 h
Experimental: (§1) Growth kinetics of fibroblasts, MCF10A, MDA-MB-231, MDA-MB-361 and MDA-MB-453 cells was determined by the 4,5-dimethylthiazol-2-yl)-2,5-diphenyltetrazolium bromide (MTT) assay. Briefly, 2 × 10^4 cells/well were seeded in 96 well plates in triplicate. […] MDA-MB-231 cells were treated with 500–5000 nM, MDA-MB-361 with 50–450 nM and MDA-MB-453 with 100–4000 nM of doxorubicin for 72 h. […] MDA-MB-231 cells were treated with 50–50,000 pM docetaxel. MDA-MB-361 cells were treated with 10–90 nM of docetaxel. MDA-MB-453 cells were subjected 50–10,000 pM of docetaxel. The cell proliferation was analyzed after 72 h and represented as mean of triplicate values relative to DMSO control.

MDA-MB-361 cells [2] = assay: cells; details: Homo sapiens, MDA-MB-361, 72 h
Experimental: as §1

PI3Kɣ = system: PI3Kɣ; set-up: method as in PMID 19584227; details: read-out: IC50 against PI3Kɣ; cited from earlier work
MCF10A cells = assay: cells; format: cell-based; details: for IC50: 72 h MTT
Experimental: as §1

NH fibroblasts = assay: cells; format: cell-based
MDA-MB-231 cells [3] = assay: MTT cell viability assay, 72 h
Experimental: as §1

[4] = system: MCF10A, MDA-MB-231, MDA-MB-361 and MDA-MB-453 cells; assay: Intracellular ROS, DCFDA assay; format: cell-based; details: 125 nM, 30 min
Experimental: The cells were resuspended in dichlorodihydrofluorescein diacetate (DCFH-DA) for 30 min […] using the CellQuest software v4.0.1 (Becton Dickinson and Company, Franklin Lakes, NJ, USA) to measure the ROS levels. The DCFH-DA levels were measured using a SPECTRAmax PLUS Microplate Spectrophotometer Plate Reader (Molecular Devices Corporation).

[5] = system: p-AKT, p-P53, p-CHK1, p-CHK2 in MDA-MB-231, MDA-MB-361 and MDA-MB-453 cells; format: cell-based, Human; details: for phosphorylation of AKT at Thr308: data not shown; for phosphorylation of CHK2 at T68: most notably in MDA-MB-361 and MDA-MB-453 versus vehicle control, 24 h
From the text: Cells were lysed in RIPA buffer (Thermo Fisher Scientific, Waltham, MA, USA, Cat#BP-115) supplemented with protease and phosphatase inhibitors (Thermo Fisher Scientific, Cat#88669). […] Peroxidase-conjugated secondary antibodies (Santa Cruz Biotechnology) were used and protein signals were detected using Pierce ECL western blotting substrate (Thermo Fisher Scientific, Cat# 32106).

MDA-MB-231 cells [6] = system: MDA-MB-231 cells
Experimental: as §1

MDA-MB-361 cells [7] = system: MDA-MB-361 cells
Experimental: as §1

MDA-MB-453 cells [8] = system: MDA-MB-453 cells
Experimental: as §1

[9] = system: MDA-MB-231, MDA-MB-361 and MDA-MB-453 cells; assay: MTT cell viability assay, combination treatments, 72 h; format: cell-based, Human
Experimental: as §1

[10] = system: PIK3CA-mutated, hormone receptor (HR)-positive, HER2-negative advanced breast cancer; set-up: method as in PMID 31091374; details: cited from earlier work

Molecule: Oc1cccc(-c2nc(N3CCOCC3)c3oc4ncccc4c3n2)c1 [PI-103, 3-(4-morpholinopyrido[3′,2′:4,5]furo[3,2-d]pyrimidin-2-yl)phenol]
- IC50 (MDA-MB-453 cells [1]; Homo sapiens, MDA-MB-453, 72 h): 0.82 µM
- IC50 (MDA-MB-361 cells [2]): 1.7 µM
- IC50 (PI3Kɣ): 0.015 µM
- IC50 (MCF10A cells; Homo sapiens, MCF-10A): 3.8 µM
- IC50 (NH fibroblasts; Fibroblast, fibroblasts, 72 h MTT): 3.9 µM

Molecule: CC(=O)N[C@@H](CS)C(=O)O [NAC, N-Acetyl Cysteine]
- rescue of antiproliferative effects of RIDR-PI-103 and doxorubicin (MDA-MB-231 cells [3]; MDA-MB-231, 10 mM NAC, 125 nM doxorubicin ± 30 µM RIDR-PI-103, 24 hour): rescued the antiproliferative effects

Molecule: COc1cccc2c1C(=O)c1c(O)c3c(c(O)c1C2=O)C[C@@](O)(C(=O)CO)C[C@@H]3O[C@H]1C[C@H](N)[C@H](O)[C@H](C)O1 [Doxorubicin]
- ROS levels [4]: induced ROS
- IC50 (MDA-MB-453 cells [1]; Homo sapiens, MDA-MB-453, 72 h, read-out: IC50 (MDA-MB-453)): 0.579 µM
- p53 phosphorylation at Ser15 [5]: didn’t observe p53 post-translational modification activation
- phosphorylation of AKT at Thr308 [5]: no effect
- phosphorylation of CHK2 at T68 [5]: increased phosphorylation
- IC50 (MDA-MB-231 cells [3]; Homo sapiens, MDA-MB-231, 72 h, read-out: IC50 (MDA-MB-231)): 0.405 µM
- IC50 (MDA-MB-361 cells [2]; read-out: IC50 (MDA-MB-361)): 0.116 µM
- IC50 (MDA-MB-231 cells [6]): 0.185 µM and 0.146 µM
- IC50 (MDA-MB-361 cells [7]): 0.111 µM and 0.11 µM and 0.0732 µM
- IC50 (MDA-MB-453 cells [8]): 0.529 µM and 0.516 µM and 0.478 µM

Molecule: CC(=O)O[C@@]12CO[C@@H]1C[C@H](O)[C@@]1(C)C(=O)[C@H](O)C3=C(C)[C@@H](OC(=O)[C@H](O)[C@@H](NC(=O)OC(C)(C)C)c4ccccc4)C[C@@](O)([C@@H](OC(=O)c4ccccc4)[C@H]21)C3(C)C [docetaxel]
- suppression of breast cancer cell growth in combination with RIDR-PI-103 ([9]; docetaxel + 10, 15 or 30 µM RIDR-PI-103, 72 h): less effective

Molecule: Cc1nc(NC(=O)N2CCC[C@H]2C(N)=O)sc1-c1ccnc(C(C)(C)C(F)(F)F)c1 [alpelisib, Alpelisib]
- improvement of progression-free survival compared with fulvestrant alone ([10]; alpelisib in combination with fulvestrant, patients who had received endocrine therapy previously): about 5 months
- adverse events ([10]; patients receiving alpelisib): high risk of hyperglycemia-related adverse events

Molecule: ROS-induced drug release 3-(4-morpholinopyrido[3′,2′:4,5]furo[3,2-d]pyrimidin-2-yl)phenol [RIDR-PI-103]
- IC50 (MDA-MB-453 cells [1]; MDA-MB-453, 72 h MTT): 49.1 µM
- phosphorylation of AKT at Thr308 [5]: no effect
- phosphorylation of CHK2 at T68 [5]: increased phosphorylation
- IC50 (MDA-MB-231 cells [3]; MDA-MB-231, 72 h MTT): 47.3 µM
- effect on cytotoxicity of doxorubicin ([9]; 10, 15 and 30 µM RIDR-PI-103, MDA-MB-231, MDA-MB-361 and MDA-MB-453): enhances the cytotoxicity
- growth inhibition ([9]; three breast cancer cell lines, 50 µM or greater, 72 h): showed growth inhibition
- IC50 (MDA-MB-361 cells [7]; MDA-MB-361, 72 h MTT): 43 µM
- response to treatment (growth) (MCF10A cells; 50 µM or greater, 72 h): did not respond appreciably
- IC50 (MCF10A cells): 78.6 µM
- response to treatment (growth) (NH fibroblasts; normal fibroblasts, 50 µM or greater, 72 h): did not respond appreciably
